Test results published in article PMC4467398, “Preclinical antitumor activity of ST7612AA1: a new oral thiol-based histone deacetylase (HDAC) inhibitor” (Oncotarget, 2014).

How the values were obtained:
[1] = tested on: Breast cancer MDA-MB436 xenograft; test: In vivo xenograft model, oral ST7612AA1; design: species or system nude mice; conditions: 60 mg/10 mL/kg oral, Qdx5/wx4w
Protocol: (§1) Experiments on solid tumor and acute leukemia in vivo models were carried out at Sigma-Tau (Rome, Italy) using female athymic nude mice, 5-6 weeks-old (Harlan Laboratories, Udine, IT). Mice were maintained in laminar flow rooms with constant temperature and humidity in according to the NIH guidelines. The following human tumor xenograft models were used for antitumor activity studies: HCT116 derived from colon carcinoma), MV4;11 from acute myeloid leukaemia (AML), SKOV-3 from ovarian carcinoma, and NCI-H1975 from non-small cell lung cancer (NSCLC). Exponentially growing tumor cells were s.c. inoculated (5×10^6/mouse) in the right flank of nude mice. Groups of eight mice/group were employed to assess antitumor activity. MDA-MB436 breast carcinoma (3×10^6 cells/0.1 mL of M199/Matrigel GFR 50:50, vol/vol solution) was inoculated in mammary fat pad (mfp). Drug treatments were started from 3 to 11 days after tumor injection, depending on the tumor growth of the xenografted cancer model. ST7612AA1 was given daily for five days per week (qdx5/w). Tumor growth was followed by measurements of tumor diameters with a Vernier caliper. Tumor volume (TV) was calculated using the formula: TV (mm^3) = [d^2 x D]/2, where d and D are the shortest and the longest diameter, respectively. The efficacy of the drug treatment was assessed as: TV inhibition percentage (TVI%) in treated versus control mice, calculated as: TVI%=100-(mean TV treated/mean TV control x100). When tumors reached a volume of 500-1000 mm^3, mice were sacrificed by cervical dislocation. To examine the possible toxicity of treatment, body weight was recorded throughout the study. BWL% (body weight loss) was calculated as 100 – (mean BWdayx/mean BWday1x100), where day 1 is the first day of treatment and day x is any day after (maximum BWL%). DT as doubling time of control tumors was also evaluated.

[2] = tested on: Acute myeloid leukemia MV4;11 xenograft; test: In vivo xenograft model, oral ST7612AA1; design: species or system nude mice; conditions: 60 mg/10 mL/kg oral, Qdx5/wx3w
Protocol: as §1

[3] = tested on: Ovarian cancer SKOV-3 xenograft; test: In vivo xenograft model, oral ST7612AA1; design: species or system nude mice; conditions: 60 mg/10 mL/kg oral, Qdx5/wx4w
Protocol: as §1

[4] = tested on: NSCLC NCI-H1975 xenograft; test: In vivo xenograft model, oral ST7612AA1; design: species or system nude mice; conditions: 60 mg/10 mL/kg oral, Qdx5/wx2w
Protocol: as §1

[5] = tested on: Colon cancer HCT-116 xenograft; test: In vivo xenograft model, oral ST7612AA1; design: species or system nude mice; conditions: 60 mg/10 mL/kg oral, Qdx5/wx3w
Protocol: as §1

Ovarian cancer SKOV-3 = test: In vitro proliferation assay (sulphorodamine B); assay type: cell-based; conditions: Homo sapiens, SK-OV-3, 72 h, mean ± S.E.M.

With `CC(=O)SCCCCC[C@H](NC(=O)[C@H]1CCC(=O)N1)C(=O)Nc1ccccc1` [ST7612AA1] the BWL% max ([1]; maximum body weight loss) was 4%, the Lethal toxicity ([1]; mice dead from toxicity/total) was 0/8 and the BWL% max ([2]; maximum body weight loss) was 4%. The Lethal toxicity ([2]; mice dead from toxicity/total) was 0/8, the BWL% max ([3]; maximum body weight loss) was 1% and the Lethal toxicity ([3]; mice dead from toxicity/total) was 0/8. For the same molecule, the BWL% max ([4]; maximum body weight loss) was 4%, the Lethal toxicity ([4]; mice dead from toxicity/total) was 0/8 and the BWL% max ([5]; maximum body weight loss) was 1%. For the same molecule, the Lethal toxicity ([5]; mice dead from toxicity/total) was 0/8 and the IC50 (Ovarian cancer SKOV-3) was 380 nM.
